Converted amounts (≈) assume the structure as drawn. Each block holds one compound with its values, some of them ahead of it.
Columns and labels:
Test in all cases: ≥ marks a high value that may be exact or a test limit, other limits are often not marked, values filed in µg/mL are converted to µM
[1] = tested on: Escherichia coli BW25113
[2] = tested on: Acinetobacter baumannii ATCC 19606
[3] = tested on: Pseudomonas aeruginosa ATCC 27853
[4] = tested on: Cryptococcus neoformans ATCC 208821
[5] = tested on: Klebsiella pneumoniae ATCC 700603
[6] = tested on: Candida albicans ATCC 90028
[7] = tested on: Staphylococcus aureus ATCC 43300
[8] = tested on: Escherichia coli ATCC 25922
[9] = tested on: Escherichia coli W3110
[10] = tested on: Klebsiella pneumoniae ATCC BAA-1705
[11] = tested on: Enterococcus faecalis CIP 76.117
[12] = tested on: Pseudomonas aeruginosa PAO1
[13] = tested on: Staphylococcus epidermidis
[14] = tested on: Salmonella enterica serovar Typhimurium
[15] = tested on: Staphylococcus aureus ATCC 25923
[16] = tested on: Enterococcus faecalis ATCC 29212
[17] = tested on: Pseudomonas aeruginosa 919
[18] = tested on: Pseudomonas aeruginosa 253
[19] = tested on: Pseudomonas aeruginosa H103
[20] = tested on: Candida albicans
[21] = tested on: Escherichia coli UB1005
[22] = tested on: Pseudomonas aeruginosa 910
[23] = tested on: Bacillus cereus ATCC 11778
[24] = tested on: Staphylococcus aureus ATCC 29213
[25] = tested on: Klebsiella aerogenes ATCC 13048
[26] = tested on: Salmonella enterica subsp. enterica serovar Typhimurium ATCC 14028

Structure (SMILES): CC[C@H](C)[C@H](NC(=O)[C@@H]1CCCN1C(=O)[C@@H]1CCCN1C(=O)[C@H](CCCN=C(N)N)NC(=O)[C@H](Cc1c[nH]c2ccccc12)NC(=O)[C@@H](N)CCCN=C(N)N)C(=O)N[C@@H](CCCN=C(N)N)C(=O)N[C@@H](CCCN=C(N)N)C(=O)N1CCC[C@H]1C(=O)N1CCC[C@H]1C(=O)N[C@H](C(=O)N[C@@H](CCCN=C(N)N)C(=O)N1CCC[C@H]1C(=O)N1CCC[C@H]1C(=O)N[C@@H](Cc1ccccc1)C(=O)N[C@@H](Cc1ccc(O)cc1)C(=O)N1CCC[C@H]1C(=O)O)[C@@H](C)CC [RWRPPIRRPPIRPPFYP]
MIC [1]: 16 µM (≈ 35.2 µg/mL)

Structure (SMILES): CC[C@H](C)[C@H](N)C(=O)N[C@@H](Cc1c[nH]c2ccccc12)C(=O)N[C@@H](Cc1c[nH]c2ccccc12)C(=O)N[C@@H](C)C(=O)N[C@@H](CCCCN)C(=O)N[C@@H](Cc1c[nH]c2ccccc12)C(=O)NCC(=O)N[C@@H](CC(C)C)C(=O)N[C@@H](CC(=O)O)C(=O)N[C@@H](CC(C)C)C(=O)N[C@@H](CC(C)C)C(=O)N[C@@H](CCCN=C(N)N)C(=O)N[C@@H](Cc1ccc(O)cc1)C(=O)N[C@@H](CCCN=C(N)N)C(=O)N[C@@H](CCCN=C(N)N)C(=O)N[C@H](C(=O)N[C@@H](Cc1c[nH]c2ccccc12)C(=O)O)[C@@H](C)CC [IWWAKWGLDLLRYRRIW]
MIC [9]: ≥ 64 µM | MIC [10]: ≥ 128 µM

Structure (SMILES): CC[C@H](C)[C@H](NC(=O)[C@H](CCC(N)=O)NC(=O)[C@@H]1CCCN1C(=O)[C@H](CC(=O)O)NC(=O)[C@H](Cc1ccccc1)NC(=O)[C@@H](NC(=O)[C@H](Cc1cnc[nH]1)NC(=O)[C@H](Cc1cnc[nH]1)NC(=O)[C@H](Cc1ccccc1)NC(=O)[C@@H](N)Cc1ccccc1)[C@@H](C)CC)C(=O)N[C@@H](CCCCN)C(=O)N[C@@H](CO)C(=O)NCC(=O)N[C@@H](CC(C)C)C(=O)N[C@@H](CC(C)C)C(=O)N[C@H](C(=O)N[C@@H](CO)C(=O)N[C@@H](CCSC)C(=O)N[C@@H](Cc1ccc(O)cc1)C(=O)N[C@@H](CC(=O)O)C(=O)O)C(C)C [FFHHIFDPQIKSGLLVSMYD]
MIC [11]: ≥ 122 µM

Structure (SMILES): CC[C@H](C)[C@H](N)C(=O)N[C@@H](CC(C)C)C(=O)N[C@H](C(=O)N[C@@H](C)C(=O)N[C@@H](CS)C(=O)N[C@@H](Cc1c[nH]c2ccccc12)C(=O)NCC(=O)N[C@@H](CC(C)C)C(=O)N[C@@H](CCCCN)C(=O)N[C@@H](CC(C)C)C(=O)N[C@@H](CC(C)C)C(=O)N[C@@H](CCCN=C(N)N)C(=O)N[C@@H](Cc1ccc(O)cc1)C(=O)N[C@@H](CCCN=C(N)N)C(=O)N[C@@H](CCCN=C(N)N)C(=O)N[C@H](C(=O)N[C@@H](Cc1ccc(O)cc1)C(=O)O)[C@@H](C)CC)[C@@H](C)CC [ILIACWGLKLLRYRRIY]
MIC [9]: 4 µM (≈ 8.6 µg/mL) | MIC [10]: ≥ 128 µM

Structure (SMILES): CC[C@H](C)[C@H](NC(=O)[C@H](CCCN=C(N)N)NC(=O)[C@H](C)NC(=O)CNC(=O)[C@@H](N)CCCN=C(N)N)C(=O)N[C@H](C(=O)N[C@H](C(=O)N[C@H](C(=O)N[C@@H](CCCN=C(N)N)C(=O)N[C@H](C(=O)N[C@@H](C)C(=O)N[C@@H](CCCN=C(N)N)C(N)=O)C(C)C)[C@@H](C)CC)C(C)C)C(C)C [RGARIVVIRVAR]
MIC [12]: 32 µM (≈ 43.7 µg/mL) | MIC [13]: 11.7 µM (≈ 16 µg/mL) | MIC [14]: 22.7 µM (≈ 31 µg/mL) | MIC [15]: 22.7 µM (≈ 31 µg/mL) | MIC [16]: 22.7 µM (≈ 31 µg/mL) | MIC [17]: 16 µM (≈ 21.8 µg/mL) | MIC [18]: ≥ 32 µM | MIC [19]: 22.7 µM (≈ 31 µg/mL) | MIC [20]: 11.7 µM (≈ 16 µg/mL) | MIC [21]: 5.86 µM (≈ 7.99 µg/mL) | MIC [22]: ≥ 32 µM

Structure (SMILES): CC[C@H](C)[C@H](N)C(=O)N[C@@H](CC(C)C)C(=O)NCC(=O)N[C@@H](C)C(=O)N[C@@H](C)C(=O)N[C@@H](Cc1c[nH]c2ccccc12)C(=O)N[C@@H](CC(N)=O)C(=O)NCC(=O)N[C@@H](C)C(=O)N[C@@H](CCCCN)C(=O)N[C@@H](CO)C(=O)N[C@@H](CC(C)C)C(=O)N[C@@H](Cc1ccccc1)C(N)=O [ILGAAWNGAKSLF]
MIC [23]: ≥ 74.2 µM | MIC [24]: > 74.2 µM | MIC [25]: ≥ 74.2 µM | MIC [26]: > 74.2 µM | MIC [8]: > 74.2 µM

Structure (SMILES): CC[C@H](C)[C@H](N)C(=O)N[C@@H](CC(C)C)C(=O)N[C@@H](CCCCN)C(=O)N[C@@H](Cc1c[nH]c2ccccc12)C(=O)N[C@@H](CCCCN)C(=O)N[C@H](C(=O)N[C@@H](Cc1ccccc1)C(=O)N[C@@H](CCCCN)C(=O)N[C@@H](Cc1c[nH]c2ccccc12)C(=O)N[C@@H](CCCCN)C(=O)N[C@@H](Cc1c[nH]c2ccccc12)C(=O)N[C@@H](Cc1ccccc1)C(=O)N[C@@H](CCCN=C(N)N)C(N)=O)[C@@H](C)CC [ILKWKIFKWKWFR]
MIC [12]: 2 µM (≈ 3.76 µg/mL) | MIC [17]: ≥ 32 µM | MIC [18]: 11.3 µM (≈ 21.3 µg/mL) | MIC [22]: 4 µM (≈ 7.51 µg/mL)

Structure (SMILES): CC[C@H](C)[C@H](NC(=O)[C@H](CCCN=C(N)N)NC(=O)[C@H](CCCN=C(N)N)NC(=O)[C@H](CC(C)C)NC(=O)[C@@H](N)CCCN=C(N)N)C(=O)N[C@H](C(=O)N[C@H](C(=O)N[C@H](C(=O)N[C@@H](CCCN=C(N)N)C(=O)N[C@H](C(=O)N[C@@H](C)C(=O)N[C@@H](CCCN=C(N)N)C(=O)O)C(C)C)[C@@H](C)CC)C(C)C)C(C)C [RLRRIVVIRVAR]
MIC [12]: 16 µM (≈ 24.1 µg/mL) | MIC [13]: 1.33 µM (≈ 2 µg/mL) | MIC [14]: 5.31 µM (≈ 8 µg/mL) | MIC [15]: 5.31 µM (≈ 8 µg/mL) | MIC [16]: 5.31 µM (≈ 8 µg/mL) | MIC [17]: 16 µM (≈ 24.1 µg/mL) | MIC [18]: 16 µM (≈ 24.1 µg/mL) | MIC [19]: 5.31 µM (≈ 8 µg/mL) | MIC [20]: 10.6 µM (≈ 16 µg/mL) | MIC [21]: 2.65 µM (≈ 4 µg/mL) | MIC [22]: ≥ 32 µM

Continued, values first:

MIC [2]: > 23.6 µM | MIC [3]: > 23.6 µM | MIC [4]: 23.6 µM (≈ 32 µg/mL) | MIC [5]: > 23.6 µM | MIC [6]: 23.6 µM (≈ 32 µg/mL) | MIC [7]: > 23.6 µM | MIC [8]: > 23.6 µM
Structure (SMILES): NCC(=O)N[C@@H](CCCN=C(N)N)C(=O)N[C@@H](CCCN=C(N)N)C(=O)NCC(=O)NCC(=O)N[C@@H](CCCN=C(N)N)C(=O)NCC(=O)NCC(=O)N[C@@H](CCCN=C(N)N)C(=O)NCC(=O)N[C@@H](CCCN=C(N)N)C(=O)NCC(=O)N[C@@H](CCCN=C(N)N)C(=O)O [GRRGGRGGRGRGR]

MIC [1]: 4 µM (≈ 9.64 µg/mL)
Structure (SMILES): CC[C@H](C)[C@H](NC(=O)[C@@H]1CCCN1C(=O)[C@H](Cc1c[nH]c2ccccc12)NC(=O)[C@H](CCCN=C(N)N)NC(=O)[C@H](Cc1ccccc1)NC(=O)[C@@H](N)CCCN=C(N)N)C(=O)N[C@@H](CCCN=C(N)N)C(=O)N[C@@H](CCCN=C(N)N)C(=O)N[C@@H](CCCN=C(N)N)C(=O)N1CCC[C@H]1C(=O)N[C@H](C(=O)N[C@@H](CCCN=C(N)N)C(=O)N1CCC[C@H]1C(=O)N1CCC[C@H]1C(=O)N[C@@H](Cc1c[nH]c2ccccc12)C(=O)N[C@@H](Cc1ccc(O)cc1)C(=O)N[C@@H](CCCN=C(N)N)C(=O)O)[C@@H](C)CC [RFRWPIRRRPIRPPWYR]

MIC [9]: 2 µM (≈ 4.75 µg/mL) | MIC [10]: 16 µM (≈ 38 µg/mL)
Structure (SMILES): CC[C@H](C)[C@H](NC(=O)[C@H](CCCCN)NC(=O)[C@H](CCCCN)NC(=O)[C@H](Cc1c[nH]c2ccccc12)NC(=O)[C@H](CCCCN)NC(=O)[C@H](Cc1c[nH]c2ccccc12)NC(=O)[C@H](CC(C)C)NC(=O)[C@H](CCCCN)NC(=O)[C@H](CC(C)C)NC(=O)CNC(=O)[C@H](Cc1c[nH]c2ccccc12)NC(=O)[C@H](CCCCN)NC(=O)[C@H](C)NC(=O)[C@H](Cc1c[nH]c2ccccc12)NC(=O)[C@H](CCCN=C(N)N)NC(=O)[C@@H](N)Cc1c[nH]c2ccccc12)C(=O)N[C@@H](Cc1ccc(O)cc1)C(=O)O [WRWAKWGLKLWKWKKIY]

MIC [2]: > 20.2 µM | MIC [3]: > 20.2 µM | MIC [4]: 20.2 µM (≈ 32 µg/mL) | MIC [5]: > 20.2 µM | MIC [6]: 20.2 µM (≈ 32 µg/mL) | MIC [7]: > 20.2 µM | MIC [8]: > 20.2 µM
Structure (SMILES): NC(=O)CC[C@H](NC(=O)[C@H](Cc1cnc[nH]1)NC(=O)[C@H](CO)NC(=O)[C@H](CCCN=C(N)N)NC(=O)[C@H](Cc1ccccc1)NC(=O)[C@H](Cc1cnc[nH]1)NC(=O)[C@H](CCCN=C(N)N)NC(=O)[C@H](Cc1cnc[nH]1)NC(=O)[C@H](Cc1cnc[nH]1)NC(=O)[C@@H](N)CO)C(=O)N[C@@H](CS)C(=O)N[C@@H](CCCN=C(N)N)C(=O)O [SHHRHFRSHQCR]

From DBAASP
